The results in this text go back to patent US11919901B2 (Syndax Pharmaceuticals, Inc., priority 2021, dated 2024).

The test has as its target Menin-MLL (Homo sapiens (Human), UniProt O00255). Nature of the test: Determination of binding constants (Ki) to Menin-MLL (HTRF). The following applies: HTRF, 0.25 nM H-FL-Menin, 3.2 nM FITC-MLL-4-43, 24 hr incubation; for Ki: read-out: Menin-MLL Ki HTRF Assay: Ki. On the technique in general: TR-FRET usually uses a lanthanide donor and a delayed reading to cut background.

Chain of Menin-MLL (O00255 whole entry): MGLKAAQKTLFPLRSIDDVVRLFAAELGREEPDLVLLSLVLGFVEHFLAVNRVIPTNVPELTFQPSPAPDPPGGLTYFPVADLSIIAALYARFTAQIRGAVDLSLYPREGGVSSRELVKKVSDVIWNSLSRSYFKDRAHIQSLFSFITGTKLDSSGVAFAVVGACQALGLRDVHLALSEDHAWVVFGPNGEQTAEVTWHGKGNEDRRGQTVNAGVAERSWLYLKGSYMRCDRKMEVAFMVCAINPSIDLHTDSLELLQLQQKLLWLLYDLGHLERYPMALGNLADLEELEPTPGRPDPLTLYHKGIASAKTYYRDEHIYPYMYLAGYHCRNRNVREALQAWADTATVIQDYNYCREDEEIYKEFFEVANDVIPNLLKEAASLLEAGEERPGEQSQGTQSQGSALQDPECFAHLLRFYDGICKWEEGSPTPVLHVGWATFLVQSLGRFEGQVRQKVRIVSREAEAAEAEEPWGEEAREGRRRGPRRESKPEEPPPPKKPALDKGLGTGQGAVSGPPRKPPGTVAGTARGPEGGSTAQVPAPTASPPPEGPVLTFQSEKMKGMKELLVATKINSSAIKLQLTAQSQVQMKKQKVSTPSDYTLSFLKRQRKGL

Broadly, the Ki is a dissociation constant, usually derived from enzyme kinetics or from competition with a known ligand. `CC(C)N(C(=O)c1cc(F)ccc1Oc1cncnc1N1CC2(CCN(C[C@@H]3CC[C@@H](NS(=N)(=O)c4ccccc4)CO3)CC2)C1)C(C)C` (mixture of isomers) [Compound 228, 5-Fluoro-N,N-diisopropyl-2-((4-(7-(((2S,5R)-5-(phenylsulfonoamidimidamido)tetrahydro-2H-pyran-2-yl)methyl)-2,7-diazaspiro[3.5]nonan-2-yl)pyrimidin-5-yl)oxy)benzamide]: the inhibitory constant (Ki) was below 1 nM. On to `CC[S@@](=N)(=O)N[C@@H]1CC[C@@H](CN2CCC3(CC2)CN(c2ncncc2Oc2ccc(F)cc2C(=O)N(C(C)C)C(C)C)C3)OC1` (single isomer, unassigned) [Compound 226], for which the inhibition constant (Ki) is below 1 nM. Turning to `CC[S@](=N)(=O)N[C@@H]1CC[C@@H](CN2CCC3(CC2)CN(c2ncncc2Oc2ccc(F)cc2C(=O)N(C(C)C)C(C)C)C3)OC1` (single isomer, unassigned) [Compound 227], the Ki is below 1 nM. Turning to `CC(C)N(C(=O)c1cc(F)ccc1Oc1cncnc1N1CC2(CCN(C[C@@H]3CC[C@@H](N[S@@](=N)(=O)c4ccccc4)CO3)CC2)C1)C(C)C` (single isomer, unassigned) [Compound 229], the Ki is below 1 nM. With `CC(C)N(C(=O)c1cc(F)ccc1Oc1cncnc1N1CC2(CCN(C[C@@H]3CC[C@@H](N[S@](=N)(=O)c4ccccc4)CO3)CC2)C1)C(C)C` (single isomer, unassigned) [Compound 230], the Ki is below 1 nM. Broadly, the EC50 is the concentration at which the effect is half-maximal. Low readings indicate greater potency, high ones weaker potency. Turning to `CCS(=O)(=O)N[C@@H]1CC[C@@H](CN2CCC3(CC2)CN(c2ncncc2Oc2ccc(F)cc2C(=O)N(C(C)C)[C@@H]2CC[C@H]2O)C3)OC1` (single isomer, unassigned) [Compound 256], the EC50 is below 50 nM and the Ki is below 1 nM.

On to `CCS(=O)(=O)N[C@@H]1CC[C@@H](CN2CCC3(CC2)CN(c2ncncc2Oc2ccc(F)cc2C(=O)N(C(C)C)[C@H]2CC[C@@H]2O)C3)OC1` (single isomer, unassigned) [Compound 257], for which the half-maximal effective concentration (EC50) was below 50 nM and the inhibition constant (Ki) was below 1 nM. As for `CCN(C(=O)c1cc(F)ccc1Oc1cncnc1N1CC2(CCN(C[C@H]3CC[C@H](NS(=O)(=O)CC)CO3)CC2)C1)C(C)C` (stereo in doubt) [Compound 52, N-ethyl-2-((4-(7-(((2R,5S)-5-(ethylsulfonamido)tetrahydro-2H-pyran-2-yl)methyl)-2,7-diazaspiro[3.5]nonan-2-yl)pyrimidin-5-yl)oxy)-5-fluoro-N-isopropylbenzamide], the concentration for a half-maximal effect (EC50) was below 50 nM. Turning to `CNS(=O)(=O)N[C@H]1CC[C@H](CN2CCC3(CC2)CN(c2ncncc2Oc2ccc(F)cc2C(=O)N(C(C)C)C2CC2)C3)OC1` (stereo in doubt) [Compound 146, N-Cyclopropyl-5-fluoro-N-isopropyl-2-((4-(7-(((2R,5S)-5-((N-methylsulfamoyl)amino)tetrahydro-2H-pyran-2-yl)methyl)-2,7-diazaspiro[3.5]nonan-2-yl)pyrimidin-5-yl)oxy)benzamide], the inhibition constant Ki was below 1 nM. On the same count and under the same terms, next, `CC(C)N(CC(F)(F)F)C(=O)c1cc(F)ccc1Oc1nncnc1N1CC2(CCN(C[C@H]3CC[C@H](NS(=O)(=O)N4CCC4)CO3)CC2)C1` (stereo in doubt) [Compound 194, 2-((5-(7-(((2R,5S)-5-(Azetidine-1-sulfonamido)tetrahydro-2H-pyran-2-yl)methyl)-2,7-diazaspiro[3.5]nonan-2-yl)-1,2,4-triazin-6-yl)oxy)-5-fluoro-N-isopropyl-N-(2,2,2-trifluoroethyl)benzamide]: below 1 nM.

`CCN(C(=O)c1cc(F)ccc1Oc1cncnc1N1CC2(CCN(C[C@@H]3CC[C@@H](NS(=O)(=O)C(C)C)CO3)CC2)C1)C(C)C` [Compound 3, N-ethyl-5-fluoro-N-isopropyl-2-((4-(7-(((2S,5R)-5-((1-methylethyl)sulfonamido)tetrahydro-2H-pyran-2-yl)methyl)-2,7-diazaspiro[3.5]nonan-2-yl)pyrimidin-5-yl)oxy)benzamide]: the EC50 is below 50 nM and the Ki was below 1 nM. Turning to `CCN(C(=O)c1cc(F)ccc1Oc1cncnc1N1CC2(CCN(C[C@@H]3CC[C@@H](NS(=O)(=O)C4COC4)CO3)CC2)C1)C(C)C` [Compound 5, N-ethyl-5-fluoro-N-isopropyl-2-((4-(7-(((2S,5R)-5-(oxetane-3-sulfonamido)tetrahydro-2H-pyran-2-yl)methyl)-2,7-diazaspiro[3.5]nonan-2-yl)pyrimidin-5-yl)oxy)benzamide], the EC50 was below 50 nM and the Ki was below 1 nM.

With `CCN(C(=O)c1cc(F)ccc1Oc1cncnc1N1CC2(CCN(C[C@@H]3CC[C@@H](NS(=O)(=O)CC4CC4)CO3)CC2)C1)C(C)C` [Compound 7, 2-((4-(7-(((2S,5R)-5-((cyclopropylmethyl)sulfonamido)tetrahydro-2H-pyran-2-yl)methyl)-2,7-diazaspiro[3.5]nonan-2-yl)pyrimidin-5-yl)oxy)-N-ethyl-5-fluoro-N-isopropylbenzamide], the EC50 is below 50 nM and the inhibition constant Ki is below 1 nM. For `CCN(C(=O)c1cc(F)ccc1Oc1cncnc1N1CC2(CCN(C[C@@H]3CC[C@@H](NS(=O)(=O)CCOC)CO3)CC2)C1)C(C)C` [Compound 8, N-ethyl-5-fluoro-N-isopropyl-2-((4-(7-(((2S,5R)-5-((2-methoxyethyl)sulfonamido)tetrahydro-2H-pyran-2-yl)methyl)-2,7-diazaspiro[3.5]nonan-2-yl)pyrimidin-5-yl)oxy)benzamide], the EC50 is below 50 nM and the Ki was below 1 nM. As for `CCCS(=O)(=O)N[C@@H]1CC[C@@H](CN2CCC3(CC2)CN(c2ncncc2Oc2ccc(F)cc2C(=O)N(CC)C(C)C)C3)OC1` [Compound 9, N-ethyl-5-fluoro-N-isopropyl-2-((4-(7-(((2S,5R)-5-(propylsulfonamido)tetrahydro-2H-pyran-2-yl)methyl)-2,7-diazaspiro[3.5]nonan-2-yl)pyrimidin-5-yl)oxy)benzamide], the EC50 is below 50 nM and the Ki was below 1 nM.

Regarding `CCN(C(=O)c1cc(F)ccc1Oc1cncnc1N1CC2(CCN(C[C@@H]3CC[C@@H](NS(=O)(=O)C4CCOC4)CO3)CC2)C1)C(C)C` (stereo partly drawn) [Compound 10, N-ethyl-5-fluoro-N-isopropyl-2-((4-(7-(((2S,5R)-5-((tetrahydrofuran)-3-sulfonamido)tetrahydro-2H-pyran-2-yl)methyl)-2,7-diazaspiro[3.5]nonan-2-yl)pyrimidin-5-yl)oxy)benzamide], the concentration for a half-maximal effect (EC50) is below 50 nM and the inhibition constant (Ki) is below 1 nM. Consider `CC(C)N(C(=O)c1cc(F)ccc1Oc1cncnc1N1CC2(CCN(C[C@@H]3CC[C@@H](NC(=O)OC(C)(C)C)CO3)CC2)C1)C1CC1` [Compound 17, tert-butyl ((3R,6S)-6-((2-(5-(2-(cyclopropyl(isopropyl)carbamoyl)-4-fluorophenoxy)pyrimidin-4-yl)-2,7-diazaspiro[3.5]nonan-7-yl)methyl)tetrahydro-2H-pyran-3-yl)carbamate], for which the half-maximal effective concentration (EC50) is below 50 nM and the Ki is below 1 nM. As for `CC(C)N(C(=O)c1cc(F)ccc1Oc1cncnc1N1CC2(CCN(C[C@@H]3CC[C@@H](NS(C)(=O)=O)CO3)CC2)C1)C1CC1` [Compound 18, N-cyclopropyl-5-fluoro-N-isopropyl-2-((4-(7-(((2S,5R)-5-(methylsulfonamido)tetrahydro-2H-pyran-2-yl)methyl)-2,7-diazaspiro[3.5]nonan-2-yl)pyrimidin-5-yl)oxy)benzamide], the 50% effective concentration (EC50) is below 50 nM and the Ki is below 1 nM.

Take `CC(C)N(C(=O)c1cc(F)ccc1Oc1cncnc1N1CC2(CCN(C[C@@H]3CC[C@@H](NS(=O)(=O)C(C)C)CO3)CC2)C1)C1CC1` [Compound 20, N-cyclopropyl-5-fluoro-N-isopropyl-2-((4-(7-(((2S,5R)-5-((1-methylethyl)sulfonamido)tetrahydro-2H-pyran-2-yl)methyl)-2,7-diazaspiro[3.5]nonan-2-yl)pyrimidin-5-yl)oxy)benzamide]: the EC50 is below 50 nM and the Ki was below 1 nM. On to `CC(C)N(C(=O)c1cc(F)ccc1Oc1cncnc1N1CC2(CCN(C[C@@H]3CC[C@@H](NS(=O)(=O)C4COC4)CO3)CC2)C1)C1CC1` [Compound 22, N-cyclopropyl-5-fluoro-N-isopropyl-2-((4-(7-(((2S,5R)-5-(oxetane-3-sulfonamido)tetrahydro-2H-pyran-2-yl)methyl)-2,7-diazaspiro[3.5]nonan-2-yl)pyrimidin-5-yl)oxy)benzamide], for which the concentration for a half-maximal effect (EC50) was below 50 nM and the inhibition constant (Ki) is below 1 nM. Take `C[C@@H]1COC[C@H](C)N1C(=O)c1cc(F)ccc1Oc1cncnc1N1CC2(CCN(C[C@@H]3CC[C@@H](NS(C)(=O)=O)CO3)CC2)C1` [Compound 23, N-((3R,6S)-6-((2-(5-(2-((3S,5R)-3,5-dimethylmorpholine-4-carbonyl)-4-fluorophenoxy)pyrimidin-4-yl)-2,7-diazaspiro[3.5]nonan-7-yl)methyl)tetrahydro-2H-pyran-3-yl)methanesulfonamide]: the EC50 was below 50 nM and the Ki was below 1 nM. In the case of `CCS(=O)(=O)N[C@@H]1CC[C@@H](CN2CCC3(CC2)CN(c2ncncc2Oc2ccc(F)cc2C(=O)N2[C@H](C)COC[C@@H]2C)C3)OC1` [Compound 24, N-((3R,6S)-6-((2-(5-(2-((3S,5R)-3,5-dimethylmorpholine-4-carbonyl)-4-fluorophenoxy)pyrimidin-4-yl)-2,7-diazaspiro[3.5]nonan-7-yl)methyl)tetrahydro-2H-pyran-3-yl)ethanesulfonamide], the EC50 was below 50 nM and the inhibition constant (Ki) is below 1 nM. `CC(C)S(=O)(=O)N[C@@H]1CC[C@@H](CN2CCC3(CC2)CN(c2ncncc2Oc2ccc(F)cc2C(=O)N2[C@H](C)COC[C@@H]2C)C3)OC1` [Compound 25, N-((3R,6S)-6-((2-(5-(2-((3S,5R)-3,5-dimethylmorpholine-4-carbonyl)-4-fluorophenoxy)pyrimidin-4-yl)-2,7-diazaspiro[3.5]nonan-7-yl)methyl)tetrahydro-2H-pyran-3-yl)propane-2-sulfonamide]: the half-maximal effective concentration (EC50) is below 50 nM and the inhibition constant Ki is below 1 nM.
